# Where a SMILES comes first, the peptide text is derived from it. Bridges are numbered along the chain shown (N, C = ends). [ ]: non-standard residue; d: D form. hPhe(3-Cl-4-CF3) = N[C@@H](CCc1ccc(C(F)(F)F)c(Cl)c1)C(=O)O; NPrPhe(4-CF3) = CCCN[C@@H](Cc1ccc(C(F)(F)F)cc1)C(=O)O; NMeGly(cPent) = CN[C@H](C(=O)O)C1CCCC1; NMeD = CN[C@@H](CC(=O)O)C(=O)O; NMeL = CN[C@@H](CC(C)C)C(=O)O; Ac5c = NC1(C(=O)O)CCCC1; Sar = CNCC(=O)O
# Columns and labels:
# [1] = target: GDP-bound NRAS wild-type protein (Homo sapiens, UniProt P01111); test: Binding to NRAS by surface plasmon resonance (SPR), Single Cycle Kinetics; conditions: SPR; for NRAS/KRAS (ratio of KD value with respect to NRAS to KD value with respect to KRAS): GDP-bound NRAS wild-type vs GDP-bound KRAS wild-type
# Chain of GDP-bound NRAS wild-type protein (P01111 whole entry): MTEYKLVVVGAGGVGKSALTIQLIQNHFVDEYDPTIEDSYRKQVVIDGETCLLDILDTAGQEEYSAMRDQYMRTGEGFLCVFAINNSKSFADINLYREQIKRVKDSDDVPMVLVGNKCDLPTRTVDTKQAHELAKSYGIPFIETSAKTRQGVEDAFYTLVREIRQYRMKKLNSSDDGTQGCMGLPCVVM
# [2] = target: GDP-bound HRAS wild-type protein (Homo sapiens, UniProt P01112); test: Binding to HRAS by surface plasmon resonance (SPR), Single Cycle Kinetics; conditions: SPR; for HRAS/KRAS (ratio of KD value with respect to HRAS to KD value with respect to KRAS): GDP-bound HRAS wild-type vs GDP-bound KRAS wild-type
# Chain of GDP-bound HRAS wild-type protein (P01112 whole entry): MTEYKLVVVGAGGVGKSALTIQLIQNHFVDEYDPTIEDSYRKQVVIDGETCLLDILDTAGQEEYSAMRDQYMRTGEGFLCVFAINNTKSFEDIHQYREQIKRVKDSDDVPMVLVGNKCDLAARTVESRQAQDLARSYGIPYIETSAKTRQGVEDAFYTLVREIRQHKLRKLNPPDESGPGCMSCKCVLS
Compound,NRAS/KRAS (ratio of KD value with respect to GDP-bound NRAS wild-type protein to KD value with respect to KRAS) ([1]; KD ratio NRAS/KRAS),HRAS/KRAS (ratio of KD value with respect to GDP-bound HRAS wild-type protein to KD value with respect to KRAS) ([2]; KD ratio HRAS/KRAS),also measured
CC[C@H](C)[C@@H]1NC(=O)[C@H](CC(C)C)N(C)C(=O)C[C@@H](C(=O)N2CCOCC2)N(C)C(=O)[C@H](CC(F)(F)F)N(C)C(=O)C2(CCCC2)NC(=O)[C@@H]2CCCN2C(=O)[C@H](CCc2cc(F)c(C(F)(F)F)c(F)c2)NC(=O)CN(C)C(=O)[C@H](Cc2ccc(C(F)(F)F)cc2)N2CCCCC[C@@H](C2=O)N(C)C(=O)CN(C)C1=O [PP0506],B (a compound having 3 or more and less than 10 is denoted as B),B (a compound having 3 or more and less than 10 is denoted as B),
CCO[C@@H]1C[C@H]2C(=O)NC3(CCC3)C(=O)N(C)[C@@H](C3CCCC3)C(=O)N(CCc3ccccc3)[C@H](C(=O)N(C)C)CC(=O)N(C)[C@@H](CC)C(=O)N[C@@H]([C@@H](C)CC)C(=O)N(C)CC(=O)N(C)[C@H]3CCCCCN(C3=O)[C@@H](Cc3ccc(C(F)(F)F)cc3)C(=O)N(C)CC(=O)N[C@@H](CCc3cc(F)c(C(F)(F)F)c(F)c3)C(=O)N2C1 [PP0637],B (a compound having 3 or more and less than 10 is denoted as B),B (a compound having 3 or more and less than 10 is denoted as B),
CC[C@H](C)[C@@H]1NC(=O)[C@@H]2CCCCCN2C(=O)C[C@@H](C(=O)N2CCOCC2)N(C)C(=O)[C@H](C2CCCC2)N(C)C(=O)C2(CCCC2)NC(=O)[C@@H]2CCCN2C(=O)[C@H](CCc2cc(F)c(C(F)(F)F)c(F)c2)NC(=O)CN(C)C(=O)[C@H](Cc2ccc(C(F)(F)F)cc2)N2CCCC[C@@H](C2=O)N(C)C(=O)CN(C)C1=O [PP0595],C (A compound having a KD ratio of 0.1 or more and less than 3 is denoted as C),B (a compound having 3 or more and less than 10 is denoted as B),
CCO[C@@H]1C[C@H]2C(=O)NC3(CCC3)C(=O)N(C)[C@@H](C3CCCC3)C(=O)N(C)[C@H](C(=O)N(C)CCOC)CC(=O)N(C)[C@@H](CC(C)C)C(=O)N[C@@H]([C@@H](C)CC)C(=O)N(C)CC(=O)N(C)[C@H]3C/C=C\CCN(C3=O)[C@@H](Cc3ccc(C(F)(F)F)cc3)C(=O)N(C)CC(=O)N[C@@H](CCc3ccc(C(F)(F)F)c(OC)c3)C(=O)N2C1 [PP1324],,,NRAS/KRAS (ratio of KD value for GDP-bound NRAS wild-type protein to KD value for KRAS) ([1]; KD ratio class): A (a compound having 10 or more and less than 20 is denoted as A); HRAS/KRAS (ratio of KD value for GDP-bound HRAS wild-type protein to KD value for KRAS) ([2]; KD ratio class): A (a compound having 10 or more and less than 20 is denoted as A)
CC[C@H](C)[C@@H]1NC(=O)[C@H](CC(C)C)N(C)C(=O)C[C@@H](C(=O)N2CCOCC2)N(C)C(=O)[C@H](C2CCC2)N(C)C(=O)C2(CCCC2)NC(=O)[C@@H]2CCCN2C(=O)[C@H](CCc2cc(F)c(C(F)(F)F)c(F)c2)NC(=O)CN(C)C(=O)[C@H](Cc2ccc(C(F)(F)F)cc2)N2CCCC[C@@H](C2=O)N(C)C(=O)CN(C)C1=O [PP0566],B (a compound having 3 or more and less than 10 is denoted as B),B (a compound having 3 or more and less than 10 is denoted as B),
CCO[C@@H]1C[C@H]2C(=O)NC3(CCC3)C(=O)N(C)[C@@H](C3CCCC3)C(=O)N(C)[C@H](C(=O)N(C)C)CC(=O)N(C)[C@@H](CC)C(=O)N[C@@H]([C@@H](C)CC)C(=O)N3CCC[C@H]3C(=O)N(C)[C@H]3C/C=C\CCN(C3=O)[C@@H](Cc3ccc(C(F)(F)F)cc3)C(=O)N(C)CC(=O)N[C@@H](CCc3cc(F)c(C(F)(F)F)c(F)c3)C(=O)N2C1 [PP1056],,,NRAS/KRAS (ratio of KD value with respect to NRAS to KD value with respect to KRAS) ([1]; KD ratio): A (a compound having 10 or more and less than 20 is denoted as A); HRAS/KRAS (ratio of KD value with respect to HRAS to KD value with respect to KRAS) ([2]; KD ratio): A (a compound having 10 or more and less than 20 is denoted as A)
CCCN1C(=O)CN(C)C(=O)CN(C)C(=O)[C@H]([C@@H](C)CC)NC(=O)[C@H](CC(C)C)N(C)C(=O)C[C@@H](C(=O)N(C)C)N(C)C(=O)[C@H](C2CCCC2)N(C)C(=O)C2(CCCC2)NC(=O)[C@@H]2CCCN2C(=O)[C@H](CCc2ccc(C(F)(F)F)c(Cl)c2)NC(=O)CN(C)C(=O)[C@@H]1Cc1ccc(C(F)(F)F)cc1 [PP0169] ([NMeL]I[Sar][Sar][NPrPhe(4-CF3)][Sar][hPhe(3-Cl-4-CF3)]P[Ac5c][NMeGly(cPent)][NMeD]-NMe2; lactam N-11),,,NRAS/KRAS (ratio of KD for GDP-bound NRAS wild-type to KD for KRAS) ([1]; KD ratio NRAS/KRAS): B (a compound having 3 or more and less than 10 is denoted as B); HRAS/KRAS (ratio of KD for GDP-bound HRAS wild-type to KD for KRAS) ([2]; KD ratio HRAS/KRAS): B (a compound having 3 or more and less than 10 is denoted as B)
CCO[C@@H]1C[C@H]2C(=O)NC3(CC(C)(C)C3)C(=O)N(C)[C@@H](C(CC)CC)C(=O)N(C)[C@H](C(=O)N(C)C)CC(=O)N(C)[C@@H](COC)C(=O)N[C@@H]([C@@H](C)CC)C(=O)N(C)CC(=O)N(C)[C@H]3C/C=C\CCN(C3=O)[C@@H](Cc3ccc(C(F)(F)F)cc3)C(=O)N(C)CC(=O)N[C@@H](CCc3ccc(C(F)(F)F)c(Cl)c3)C(=O)N2C1 [PP2126],,,NRAS/KRAS (ratio of KD value with respect to NRAS to KD value with respect to KRAS) [1]: A (a compound having 10 or more and less than 20 is denoted as A); HRAS/KRAS (ratio of KD value with respect to HRAS to KD value with respect to KRAS) [2]: B (a compound having 3 or more and less than 10 is denoted as B)

# — US20250230193A1, “CYCLIC COMPOUND HAVING SELECTIVE KRAS INHIBITORY EFFECT ON HRAS AND NRAS” (CHUGAI SEIYAKU KABUSHIKI KAISHA, priority 2022, published 2025)
